US8741965B2, “Method of administering a pheromone composition to an animal to modify the animals behavior over an extended period of time” (Sergeant's Pet Care Products, Inc., priority 2011, dated 2014)
Entries after “also recorded” stand apart in the source; their conditions may differ. Marks after values point to notes of the source that are not given here.

How the values were obtained:
[1] = test system: dogs diagnosed as nervous; experiment: Collars and heart rate of nervous dogs, 24 h basal and fog horn startle (Example 5); type: in vivo, dog; settings: collar
Description: Dogs diagnosed as being “nervous” were treated with four different treatments on different days: Placebo collar, Pheromone only collar (Serg), Rabbit INTEROMONE® collar (RP) (prepared in accordance with Example 1), and INTEROMONE® Plus Pheromone collar (Serg+RP) (prepared according to formulation provided in Example 3). Each dog experienced a given collar for 24 hours. Heart rate of the dogs was measured by remote telemetry. FIG. 22 illustrates the effects of the collars on heart rate collected over a period of 24 hours.
Each dog experienced a loud noise (fog horn) during a 2 second blast. The noise startled the dogs. Each dog had the collar on before, during and after the startle experience. […] The data illustrates that Serg alone had no effect on the startled dog heart rate. […] The data further indicate that only the RP is effective in reducing the heart rate of startled dogs.

nervous dogs (dogs 5-8) = experiment: Example 11 Study 4: room diffusers over 24 hours; type: in vivo, dog; settings: for heart rate and surface temperature of individual dogs: compared with Placebo, FIGS. 17A and 17B
Source text: (§1) Eight dogs were obtained from a local contract research facility and assessment was made as to general dog health, behavior and heart rate. The dogs were estimated to be 2 to 7 years of age, mixed breed, and weighed averagely 8.1±0.18 kg at the start of the studies. […] Upon arrival each dog was bathed using shampoo containing flea and tick medicine (Hartz Mountain Corp. Secaucus, N.J. USA), and their body hair was shaved. Each dog was kept in a single room, which had 100% fresh air intake and exhaust. The dogs were fed twice (am and pm) per day ad libitum. At that time, the room was cleaned and the dogs obtained extra exercise. Water was available ad libitum.
(§2) Dog behavior was captured on video media at a sampling rate of 30 frames per second. Video records were reviewed in real time (with tape playing 30 frames per second). A scan sampling method was used to record dog behaviors each minute or each 5 minutes depending on the particular study. If the sample period was 120 minutes with four periods (0-30=0, 30-60=30, 60-90=60, and 90-120-90 min), then a scan sample was recorded each 1 minute. If the sample period was 24 hours, then the scan sample was collected each 5 minutes and summarized each hour. For example, pacing is when a dog walks in a stereotyped manner for minutes to hours. Because it was not easy to distinguish walking from pacing, the behaviors were merged. In addition, the video records could not clearly distinguish lying down and awake versus lying down and sleeping, therefore there was no separate description for these two behaviors.
(§3) Heart rate during the studies was measured by the use of a non-invasive telemetry system (Data Science International, St. Paul, Minn., USA). Leads were placed in contact with the dogs' shaved skin. Sensors measured heart rate, surface temperature and general activity. Data were transmitted to a receiving computer in another room. The sampling rate varied with the study, but was 5 seconds for the first two hours after treatments and then each 1 minute for 24 hours (depending on the particular study). For surface temperature measurements of the dog subjects, a thermistor was located against the skin of each dog. It recorded the surface temperature to the neared 0.1° C. on the same interval as the heart rate data.
(§4) Behavior and physiological data (heart rate and surface temperature) were analyzed by least squares analysis of variance using SAS (2011) software and the general linear models procedures. The experimental design of each study was a specialized randomized complete block in a Latin square design with data collected as a split plot over time. Dogs represented the blocks. Each dog received each treatment randomly in successive days or weeks. The statistical model included effects of treatment (TRT), dog, dog by treatment (TRT*DOG; error term used to assess treatment and dog effects), time (HR), treatment by time (TRT*HR), and residual error (SE; used to test remaining effects). Behavior data were collected and analyzed as counts per time period, but for clarity of presentation, the data are reported as percentage of time dogs engaged in each behavior.
In Study 4, putative pheromones were examined as room diffusers. Room diffusers were obtained and different liquid odors were applied over a 24 hour period. In contrast to Studies 1, 2, and 3, heart rates and behavior data were obtained over 24 hours (rather than just 2 hours after treatment application as in the other studies) and a baseline day was included in the dataset. Similar to Studies 1, 2, and 3, each dog experienced each treatment on different days in random order. The following treatment groups were evaluated: Baseline, Placebo Formula H Pheromone (SERG), DAP room diffuser (DAPRD; as available commercially) and the Rabbit Pheromone in diffuser form prepared in accordance with Example 4 (RPRD, 1 μg/mL). […]

nervous dogs = experiment: Example 11 Study 2: behavior and heart rate after collar or spray with startle; type: in vivo, dog
Source text: as §1, §2, §3, §4
In Study 2, the dogs were exposed to the same treatments as in Study 1, except a startle was also applied. An aerosol can (Pet Corrector, The Company of Animals, Surrey, UK) was used to make a loud hissing noise and a spray of liquid as a startle. The protocol involved spraying the Rabbit Pheromone at 0, 30, 60, and 90 min (RP; 1 μg/mL) or collar application (PLACEBO, SERG, or DAPC) at time zero. Each dog was startled at 45 minutes. Data were recorded for 120 minutes. Data reporting periods were: 0 (0-30 min), 30 (30-60 min), and 90 (90-120 min).

anxious dogs = experiment: Efficacy of pheromone/INTEROMONE collars on dog heart rate, 24 h baseline and after Fog Horn startle (Example 4); type: in vivo
Description: Heart rate and surface temperature were measured by telemetry.
The study was conducted in two phases: Baseline and after startle. In the baseline study each of the four dogs received each collar treatment in random order for two days at a time. Heart rate and surface temperature were collected each 5 seconds for 24 hours. In the second phase, dogs were startled with a 110 dB Fog Horn and heart rate was measured each 1 second for 10 minutes before and 2 hours after startle.

[2] = 120 minutes after startle, SERG, DAPC collars, RP spray 1 μg/mL

C/C=C(\C)C=O [RP, 2-methylbut-2-enal]
heart rate collected over 24 hours ([1]; basal testing, versus placebo, FIG. 22): increased heart rate | heart rate during startle ([1]; fog horn 2 second blast, versus control, FIG. 24): lower heart rate during startle compared to control dogs | TEMP (surface temperature) (nervous dogs (dogs 5-8); after room diffuser treatment, dogs 5-8, Placebo 30.9): 33.8 | HR (overall heart rate) (nervous dogs (dogs 5-8); after room diffuser treatment, dogs 5-8, Placebo 79.6): 108.4 | Defecate (nervous dogs (dogs 5-8); room diffuser, 24 hours): 0.18% of time | Drink (nervous dogs (dogs 5-8); room diffuser, 24 hours): 0.18% of time | Eat (nervous dogs (dogs 5-8); room diffuser, 24 hours): 0.26% of time | Lick self (nervous dogs (dogs 5-8); room diffuser, 24 hours): 0.09% of time | Lying down (nervous dogs (dogs 5-8); room diffuser, 24 hours): 87.0% of time | Pace- (nervous dogs (dogs 5-8); room diffuser, 24 hours): 5.67% of time | Sitting (nervous dogs (dogs 5-8); room diffuser, 24 hours): 5.00% of time | Standing (nervous dogs (dogs 5-8); room diffuser, 24 hours): 1.42% of time | Urinate (nervous dogs (dogs 5-8); room diffuser, 24 hours): 0.26% of time | drinking behavior of individual dogs (nervous dogs (dogs 5-8); room diffuser, FIG. 16): dog 7 showed increased drinking | heart rate and surface temperature of individual dogs (nervous dogs (dogs 5-8); room diffuser): increased the surface temperature of dog 7 compared to placebo | heart rate and surface temperature of individual dogs (nervous dogs (dogs 5-8); room diffuser, listed as rabbit pheromone): Dog 5 had elevated HR and surface temperature; also recorded: Dog 6 had increased heart rate and decreased surface temperature | heart rate of dog 5 (nervous dogs (dogs 5-8); room diffuser, increased to): about 200 bpm | Defecate (nervous dogs; [2]): 0.0 % of time | Drink (nervous dogs; [2]): 3.7 % of time | Eat (nervous dogs; [2]): 1.2 % of time | Lick self (nervous dogs; [2]): 0.0^b % of time | Lying down (nervous dogs; [2]): 46.4 % of time | Pace-walk (nervous dogs; [2]): 19.4 % of time | Sitting (nervous dogs; [2]): 53.8 % of time | Standing (nervous dogs; [2]): 23.4^b % of time | Urinate (nervous dogs; [2]): 0.0 % of time | lying down and sitting behavior of individual dogs after startle (nervous dogs; FIGS. 8 and 9): dogs 2, 3, 6 and 8 spent less time lying down but more time sitting after startle | standing behavior after startle (nervous dogs; in comparison to Placebo or SERG collars): increased standing behavior among RP-sprayed dogs | heart rate over 24 hours with collar (overall and individual dogs) (anxious dogs; baseline phase, versus Placebo, FIG. 19): increased the heart rate of dog 1 | heart rate after startle (individual dogs) (anxious dogs; collar, 110 dB Fog Horn startle, FIG. 20): Dogs 1 and 4 had reduced heart rate | decline in heart rate from hour of startle (hour 1) to next hour (hour 2), slope of regression (anxious dogs; collar, after startle, FIG. 21, placebo 15 bpm): 26.6 bpm
